Patent US20240287134A1, “PEPTIDES FOR USE AS SENOTHERAPEUTIC AGENTS” (FUNDACIÓN PROFESOR NOVOA SANTOS, priority 2019, published 2024)
Where a SMILES comes first, the peptide text is derived from it. Where no end group is shown, it is not given here. The star is where a group is joined. X1 = CN(C)c1ccc2c(c1)Oc1cc(N(C)C)ccc1C21OC(=O)c2ccc(C(=O)*)cc21; TMR = fluorophore attached at the N-terminus

Assays:
Type in all cases: cell-based, human
[1] = tested on: primary chondrocytes from articular cartilage of patients with OA; assay: MTT cell viability assay to study toxicity; conditions: 1-10-60-600 μM, 16 hours, with respect to untreated cells
Method: FIG. 2. Cell viability assay to study toxicity. A MTT viability assay was carried out in primary chondrocytes from articular cartilage of patients with OA treated with increasing concentrations of the peptide 8Arg-YSA1 (1-10-60-600 μM, with the octaarginine sequence and the TMR), for 16 hours.
An initial number of cells (5,000-10,000) were seeded in a 96-well culture plate and treated with different concentrations of the peptides. After the treatment, the medium was removed from each well and 10 μL of the MTT reagent was added to 100 μL of fresh medium and incubated at 37° C. for 4 hours. To solubilize the formazan crystals of the MTT reagent, it was incubated with DMSO at room temperature and under stirring for 30 minutes. Absorbance was measured at 570 nm in a plate reader (Nanoquant Infinite M200, TECAN).
Such as it is explained in FIG. 2, a MTT viability assay was carried out on primary chondrocytes from articular cartilage of patients with OA treated with increasing concentrations of the peptide 8Arg-YSA1 (1-10-60-600 μM, with the arginine sequence and the TMR), for 16 hours.

Cx43 in OA chondrocytes [2] = assay: Western-blot of Cx43 levels; conditions: 16 hours, vs untreated (UT)
Description: (§1) FIG. 4. Decrease in Cx43 levels in chondrocytes from patients with OA treated with peptides YSA1, YTP1 and TUB1. […] The decrease in the levels and activity of Cx43 activates the re-differentiation of the chondrocyte and decreases the accumulation of senescent cells, restoring the adult chondrocyte phenotype and tissue regeneration capacity. […] The results obtained were confirmed by western-blot using α-tubulin as loading control. […] (d) Chondrocytes isolated from donors with osteoarthritis were treated for 16 hours with the YTP1 peptide (150 μM) and the Cx43 levels were analysed by western blot, using α-tubulin as loading control. […] (e) Chondrocytes isolated from donors with OA were treated for 16 hours with the 8Arg-YSA1 peptide (5 μM) and the Cx43 levels were analysed by western blot, using α-tubulin as loading control. […] (g) Chondrocytes isolated from donors with OA were treated for 16 hours with the TUB1 peptide (5 μM) and the Cx43 levels were analysed by western blot, using the intensity of the Ponceau stain as loading control.
The cell pellet isolated from patients with OA and treated with the peptides or untreated were mechanically and chemically lysed using a needle of 29 gauges (BD Medical) in the presence of a cold lysis buffer (50 mM Tris HCl pH 7.5; 50 mM EDTA pH 8, 0.5% NP-40, 1% Triton X-100, 150 mM NaCl). Once the cell extracts were obtained, they were diluted in loading buffer (10% SDS, 200 mM Tris HCl pH 6.8, 50% glycerol, 0.1% Bromophenol Blue, 10% […]). Equal amounts of the cell extracts were separated on a 10% Acrylamide/Bisacrylamide (Acr/Bis) gel with SDS. The proteins were subsequently transferred to a polyvinylidene fluoride membrane (PVDF, Merck) in a Trans-Blot® SD Semi-Dry Transfer Cell (Bio-Rad). It was verified that the transfer was correct by staining the membrane with ATX Ponceau S (Sigma-Aldrich). To block possible nonspecific binding with the membrane, 1-hour incubation was performed at room temperature with a 5% milk solution in a TTBS buffer (20 mM Tris, 150 mM NaCl, 0.05% Tween-20). […]

[3] = tested on: gap junctions (GJs) formed by Cx43 in OA chondrocytes; assay: Scrape Loading/Dye Transfer (SL/DT) assay; conditions: 150 μM, 16 hours, vs untreated (UT)
Method: FIG. 5. Peptides YSA1 and YTP1 decrease intercellular communication through gap junctions (GJs) formed by Cx43 in OA chondrocytes. (a) Scrape Loading/Dye Transfer (SL/DT) assay in which the transfer of Lucifer Yellow (LY) fluorophore between contact chondrocytes through GJs is studied.
Cells were seeded in culture plates to an approximate 90% confluence. After treating the cells with the peptides, the medium was removed and washed twice with PBS. The fluorescent compound Lucifer Yellow (LY, Cell Projects Ltd © Kent) 0.4% in PBS was added and two cuts were made, one with a scalpel and the other with a needle on the cell monolayer. The cells were incubated for 5-7 minutes at 37° C. to allow the transfer of the LY between undamaged cells in contact, after which the LY was removed, and cells were washed with PBS. The cells were fixed with 4% formaldehyde for 10 minutes. The visualization was performed in an inverted fluorescence microscope (Inverted Research Microscope Eclipse Ti, Nikon).
A Scrape Loading/Dye Transfer (SL/DT) test was performed in which the transfer of Lucifer Yellow fluorophore (LY) between contact chondrocytes through GJs was studied.

Cx43 in OA chondrocytes [4] = assay: Immunofluorescence for the detection of Cx43; conditions: 200 μM, against untreated (UT) cells
Description: as §1
Primary cultures of chondrocytes at a confluence of 70-80% were treated with mimetic peptides of Cx43, and fixed with 2-4% paraformaldehyde (PFA, Sigma-Aldrich) in phosphate buffered saline (PBS, MP Biomedicals) for 10 minutes at room temperature. […]

[5] = 150 μM, α-tubulin loading control

Row | Molecule | cell viability (MTT) [1] | Cx43 levels (western blot) (Cx43 in OA chondrocytes [2]; 5 μM, Ponceau stain loading control) | Cx43 levels (western blot) (Cx43 in OA chondrocytes [2]; [5]) | cell coupling through GJs (Lucifer Yellow transfer) [3] | positivity for Cx43 (immunofluorescence) (Cx43 in OA chondrocytes [4])
1 | CC(C)C[C@H](NC(=O)[C@H](C)NC(=O)CNC(=O)[C@H](CO)NC(=O)[C@@H](NC(=O)[C@H](C)NC(=O)[C@H](Cc1c[nH]cn1)NC(=O)[C@H](Cc1ccc(O)cc1)NC(=O)[C@@H]1CCCN1C(=O)[C@H](CC(=O)O)NC(=O)[C@H](CO)NC(=O)[C@H](CCCCN)NC(=O)CNC(=O)[C@H](CCCNC(=N)N)NC(=O)[C@H](CCCNC(=N)N)NC(=O)[C@H](CCCNC(=N)N)NC(=O)[C@H](CCCNC(=N)N)NC(=O)[C@H](CCCNC(=N)N)NC(=O)[C@H](CCCNC(=N)N)NC(=O)[C@H](CCCNC(=N)N)NC(=O)[C@H](CCCNC(=N)N)NC(=O)c1ccc2c(c1)C1(OC2=O)c2ccc(N(C)C)cc2Oc2cc(N(C)C)ccc21)[C@@H](C)O)C(=O)N[C@@H](CO)C(=O)N1CCC[C@H]1C(=O)N[C@@H](C)C(=O)N[C@@H](CCCCN)C(=O)N[C@@H](CC(=O)O)C(=O)O [8Arg-YSA1] (X1-RRRRRRRRGKSDPYHATSGALSPAKD-OH) | did not affect cell viability |  |  |  | 
2 | Nt-FKGVKDRVKGK-Ct ({TMR}-FKGVKDRVKGK) [TUB1, TMR-labelled] |  | reduced the Cx43 levels |  |  | 
3 | Nt-GKSDPYHATSGALSPAKD-Ct ({TMR}-GKSDPYHATSGALSPAKD) [YSA1, residues 242-259 of the C-terminal domain of Cx43; labelled at N-terminus with TMR fluorophore] |  |  | significantly reduced the levels of Cx43 | decrease in cell coupling | decrease in positivity
4 | Nt-GKSDPYHATTGPLSPAKD-Ct ({TMR}-GKSDPYHATTGPLSPAKD) [YTP1, TMR-labelled] |  |  | reduced the levels of Cx43 | decreased cell coupling | decrease in positivity
